Results reported in patent US12371464B2, “Polypeptides and uses thereof” (MEDIMMUNE LIMITED, priority 2020, dated 2025).
Numbered stars: 1 amine (or outer) side, 2 acyl side, 3 side chain; on linkers, the order of the positions; unused ones are H or OH. Bridge positions count the residues as written; N and C are the ends. Square brackets hold non-standard residues; d marks the D form. Side chains are listed from the residue outwards. Peptide text beside a SMILES is read from it. * marks the point of attachment. C18 diacid = O=C(O)CCCCCCCCCCCCCCCCC(=O)*; γGlu = O=C(O)[C@H](CCC(=O)[*:2])N[*:1]; αMeF = C[C@](N)(Cc1ccccc1)C(=O)O

Assay: Thioflavin T fibrillation assay
Assay type: physicochemical
Conditions: 1 mg/mL in 25 mM sodium acetate buffer pH 4.0, 37° C., 6 days, orbital shaking; >144 h = no increase
From the text: Peptide aggregation that form fibrils is an indication of physical instability. Fibril formation in solution poses a significant risk for the stability of injectable peptide drug products. Thioflavin T (ThT) fibrillation assay is a useful tool to assess the aggregation kinetics of a peptide or protein under accelerated and stressed conditions that can be used to forecast the long-term viability of a compound in solution. ThT can selectively bind amyloid fibrils and the resultant complex emits strong fluorescence signal at 482 nm when excited at 450 nm (Anal Biochem. 1989 March; 177 (2): 244-9). Monitoring of the change in fluorescence signal is an established method to study the fibril forming potential of peptides and proteins. ThT (purchased from Sigma Aldrich) stock solution is prepared by dissolving the ThT powder in Milli-Q water and filtered to obtain a 0.25 mM solution. The concentration of the solution is measured at 412 nm using an extinction coefficient of 36 mM-1 cm-1. Test peptides were dissolved at 1 mg/mL in 25 mM sodium acetate buffer pH 4.0. 100 μL aliquot of peptide solution and 5 μL aliquot of ThT solution were placed in a clear bottom black fluorescence 96-well plate. 5 replicates of each test samples were placed in the same row of the plate. Buffer was placed in control wells for baseline correction. All empty wells were filled with water to prevent evaporation. The plate was sealed with aluminium seal and placed in fluorescence plate reader and incubated for 6 days at 37° C. with intermittent orbital shaking at 500 to 750 rpm. The fluorescence intensity was measured every 30 min using excitation at 444 nm and emission at 480 nm. The fibril forming potential of the test peptides was determined by measuring the average time taken to detect an increase in baseline corrected fluorescence intensity.

| Time taken to detect increase in fluorescence intensity [h] | SMILES |
| --- | --- |
| <5 | CC[C@H](C)[C@H](NC(=O)[C@@H]1CCCN1C(=O)CNC(=O)[C@H](Cc1ccccc1)NC(=O)[C@H](CC(N)=O)NC(=O)[C@H](CC(N)=O)NC(=O)[C@H](CO)NC(=O)[C@H](CO)NC(=O)[C@H](Cc1c[nH]cn1)NC(=O)[C@@H](NC(=O)[C@H](CC(C)C)NC(=O)[C@H](Cc1ccccc1)NC(=O)[C@H](CC(N)=O)NC(=O)[C@H](C)NC(=O)[C@H](CC(C)C)NC(=O)[C@H](CCCNC(=N)N)NC(=O)[C@H](CCC(N)=O)NC(=O)[C@@H](NC(=O)[C@H](C)NC(=O)[C@@H]1CSSC[C@H](NC(=O)[C@@H](N)CCCCNC(=O)CC[C@H](NC(=O)CCCCCCCCCCCCCCCCC(=O)O)C(=O)O)C(=O)N[C@@H](CC(N)=O)C(=O)N[C@@H]([C@@H](C)O)C(=O)N[C@@H](C)C(=O)N[C@@H]([C@@H](C)O)C(=O)N1)[C@@H](C)O)C(C)C)C(=O)N[C@@H](CC(C)C)C(=O)N1CCC[C@@H]1C(=O)N1CCC[C@H]1C(=O)N[C@H](C(=O)N[C@@H](CC(N)=O)C(=O)N[C@H](C(=O)NCC(=O)N[C@@H](CO)C(=O)N[C@@H](CC(N)=O)C(=O)N[C@H](C(=O)N[C@@H](Cc1ccc(O)cc1)C(N)=O)[C@@H](C)O)C(C)C)[C@@H](C)O [Peptide 104] (H-K([γGlu-C18 diacid])CNTATCATQRLANFLVHSSNNFGPIL[dP]PTNVGSNTY-NH2; disulfide 2-7; N-terminus assumed) |
| >144 | CC[C@H](C)[C@H](NC(=O)[C@@H]1CCCN1C(=O)CNC(=O)[C@](C)(Cc1ccccc1)NC(=O)[C@H](CC(N)=O)NC(=O)[C@H](CC(N)=O)NC(=O)[C@H](CO)NC(=O)[C@H](CO)NC(=O)[C@H](Cc1c[nH]cn1)NC(=O)[C@H](CCCNC(=N)N)NC(=O)[C@H](CC(C)C)NC(=O)[C@H](Cc1ccccc1)NC(=O)[C@H](CCC(=O)O)NC(=O)[C@H](C)NC(=O)[C@H](CC(C)C)NC(=O)[C@H](CCCNC(=N)N)NC(=O)[C@H](CCC(N)=O)NC(=O)[C@@H](NC(=O)[C@H](C)NC(=O)[C@@H]1CSSC[C@H](NC(=O)[C@@H](N)CCCCNC(=O)CC[C@H](NC(=O)CC[C@H](NC(=O)CCCCCCCCCCCCCCCCC(=O)O)C(=O)O)C(=O)O)C(=O)N[C@@H](CC(N)=O)C(=O)N[C@@H]([C@@H](C)O)C(=O)N[C@@H](C)C(=O)N[C@@H]([C@@H](C)O)C(=O)N1)[C@@H](C)O)C(=O)N[C@@H](CC(C)C)C(=O)N1CCC[C@H]1C(=O)N1CCC[C@H]1C(=O)N[C@H](C(=O)N[C@@H](CC(N)=O)C(=O)N[C@H](C(=O)NCC(=O)N[C@@H](CO)C(=O)N[C@@H](CC(N)=O)C(=O)N[C@H](C(=O)N[C@@H](Cc1ccc(O)cc1)C(N)=O)[C@@H](C)O)C(C)C)[C@@H](C)O [Peptide 11, K(γE-γE-C18diacid)[CNTATC]ATQRLAEFLRHSSNN(αMePhe)GPILPPTNVGSNTY-amide] (H-K([γGlu-γGlu-C18 diacid])CNTATCATQRLAEFLRHSSNN[αMeF]GPILPPTNVGSNTY-NH2; disulfide 2-7; N-terminus assumed) |
